According to ChEMBL document CHEMBL3232827, “Synthesis of substituted pyrimidines as corticotropin releasing factor (CRF) receptor ligands” (Eur J Med Chem, 2014):

Target: T1, Corticotropin-releasing factor receptor 1 (Homo sapiens) (UniProt P34998)
T1 sequence (whole entry): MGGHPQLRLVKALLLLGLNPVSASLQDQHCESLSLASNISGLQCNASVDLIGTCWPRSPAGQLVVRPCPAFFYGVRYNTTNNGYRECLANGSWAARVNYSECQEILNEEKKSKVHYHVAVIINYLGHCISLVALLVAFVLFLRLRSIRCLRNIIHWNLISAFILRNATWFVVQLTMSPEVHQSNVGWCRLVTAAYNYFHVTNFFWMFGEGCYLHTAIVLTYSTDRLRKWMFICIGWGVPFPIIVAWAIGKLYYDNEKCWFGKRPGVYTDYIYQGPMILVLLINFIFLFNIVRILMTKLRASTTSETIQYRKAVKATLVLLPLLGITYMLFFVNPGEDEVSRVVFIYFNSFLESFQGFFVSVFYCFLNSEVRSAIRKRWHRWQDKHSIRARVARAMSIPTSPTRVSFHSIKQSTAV
Assay: Displacement of [125I]Tyr0sauvagine from human CRF1 receptor expressed in HEK293 cell membrane at 500 nM after 120 mins by gamma scintillation counting analysis
Assay type: cell membranes

Compound	inhibition
CCCCN(CC)c1nc(C)nc(Nc2c(C)cc(C)cc2C)c1SC	< 50%
CCSc1c(Nc2c(C)cc(C)cc2C)ncnc1N(CC)CC	< 50%
COCCN(CCOC)c1ncnc(Nc2c(C)cc(C)cc2C)c1SC	< 50%
CCCN(CCC)c1ncnc(Nc2c(C)cc(C)cc2C)c1SC	< 50%
CCCCN(CC)c1ncnc(Nc2c(C)cc(C)cc2C)c1SC	< 50%
CCCN(CCC)c1nc(C)nc(Nc2c(C)cc(C)cc2C)c1SC	< 50%
CCSc1c(Nc2c(C)cc(C)cc2C)nc(C)nc1N(CC)CC	< 50%
CCCN(CCC)c1ncnc(Nc2c(C)cc(C)cc2C)c1SCC	< 50%
CCN(CC)c1nc(C)nc(Nc2c(C)cc(C)cc2C)c1SC	< 50%
CCCN(CC1CC1)c1ncnc(Nc2c(C)cc(C)cc2C)c1SC	< 50%
CCSc1c(Nc2c(C)cc(C)cc2C)ncnc1N(CCOC)CCOC	< 50%
CCCN(CC1CC1)c1nc(C)nc(Nc2ccc(C(C)C)cc2Br)c1SC	< 50%
CCCCN(CC)c1nc(C)nc(Nc2c(C)cc(C)cc2C)c1SCC	< 50%
CCCN(CC1CC1)c1nc(C)nc(Nc2c(C)cc(C)cc2C)c1SC	< 50%
CCCCN(CC)c1ncnc(Nc2c(C)cc(C)cc2C)c1SCC	< 50%

The next lines start with the values.

inhibition	Compound
< 50%	CCSc1c(Nc2ccc(C(C)C)cc2Br)nc(C)nc1N(CC)CC
< 50%	CCCN(CC1CC1)c1nc(C)nc(Nc2ccc(C(C)C)cc2Br)c1SCC
< 50%	COCCN(CCOC)c1nc(C)nc(Nc2ccc(C(C)C)cc2Br)c1SC
< 50%	CCCN(CCC)c1nc(C)nc(Nc2ccc(C(C)C)cc2Br)c1SC
< 50%	CCCCN(CC)c1nc(C)nc(Nc2ccc(C(C)C)cc2Br)c1SC
< 50%	CCN(CC)c1nc(C)nc(Nc2ccc(C(C)C)cc2Br)c1SC
< 50%	CCCN(CCC)c1nc(C)nc(Nc2ccc(C(C)C)cc2Br)c1SCC
< 50%	CCSc1c(Nc2ccc(C(C)C)cc2Br)nc(C)nc1N(CCOC)CCOC
< 50%	CCCCN(CC)c1nc(C)nc(Nc2ccc(C(C)C)cc2Br)c1SCC

Target: T2, Corticotropin-releasing factor receptor 1 (Homo sapiens, UniProt P34998)
T2 sequence (P34998 whole entry): T1 sequence (whole entry)
Assay: (§1) Displacement of [125I]Tyr0sauvagine from human CRF1 receptor expressed in HEK293 cell membrane after 120 mins by gamma scintillation counting analysis
Assay type: cell membranes

Compound	IC50
CCCCN(CC)c1nc(C)nc2c1c(C)c(C)n2-c1c(C)cc(C)cc1C [ANTALARMIN]	18.6 nM
COCCN(CCOC)c1nc(C)nc(Nc2c(C)cc(C)cc2C)c1SC	275 nM
CCSc1c(Nc2c(C)cc(C)cc2C)nc(C)nc1N(CCOC)CCOC	589 nM
CCCN(CC1CC1)c1nc(C)nc(Nc2c(C)cc(C)cc2C)c1SCC	245 nM
CCCN(CCC)c1nc(C)nc(Nc2c(C)cc(C)cc2C)c1SCC	537 nM

Target: T1, Corticotropin-releasing factor receptor 1 (Homo sapiens)
Assay: as §1
Assay type: cell membranes

Compound	inhibition
COCCN(CCOC)c1nc(C)nc(Nc2c(C)cc(C)cc2C)c1SC	Dose-dependent effect
CCSc1c(Nc2c(C)cc(C)cc2C)nc(C)nc1N(CCOC)CCOC	Dose-dependent effect
CCCN(CC1CC1)c1nc(C)nc(Nc2c(C)cc(C)cc2C)c1SCC	Dose-dependent effect
CCCN(CCC)c1nc(C)nc(Nc2c(C)cc(C)cc2C)c1SCC	Dose-dependent effect
